Patent EP3871678A1, “PRO-ANGIOGENIC COMPOUNDS” (UNIVERSITE DE BORDEAUX, priority 2020, dated 2021)

What was measured:
[1] = In vivo toxicity after subcutaneous injection of hydrogels (serum ALT, AST, LDH); design: species or system OF-1 female mice; conditions: hydrogels injected subcutaneously in mice, serum markers up to day 21
Experimental: (§1) 10-week-old OF-1 female mice (Charles Rivers, France) were used for this study. Before the bilateral subcutaneous injection of hydrogels, mice were anaesthetized using 4.5% isoflurane gas and maintained throughout surgery at 2.5% isoflurane with a face mask. The animals were depilated before surgery. The three different hydrogels were prepared as mentioned above and collected in 1 ml syringes, when the solution was in viscous form. The hydrogels were injected subcutaneously by 21-gauge needle on the dorsal side of the animals.
The in vivo toxicity of the hydrogels formed from compounds 17, 20 and GNF was investigated by serum biochemical evaluation such as alanine aminotransferase (ALT Activity Assay Kit, Sigma-Aldrich, ref MAK052), aspartate aminotransaminase (AST Activity Assay Kit, Sigma-Aldrich, ref MAK055), and lactate dehydrogenase (LDH Assay Kit, Abcam, ref ab102526). At day 0 before surgery and three-time points after implantation (3, 7, and 21 days), blood was collected from retro-orbital sinus. The blood samples were allowed to clot then followed by centrifugation to collect the serum. The serum was used for analysis as recommended by the manufacturers.

blood vessels = assay: In vivo angiogenesis around subcutaneously injected hydrogels (CD31 immunostaining, blood vessel count); conditions: hydrogel injected subcutaneously in mice, day 21, CD31 immunostaining, four random regions
Experimental: as §1
Subcutaneous injection was carried out, as indicated in example 3, in order to characterize the behavior of the hydrogels after subcutaneous injection and in situ gelation. Animals were sacrificed by cervical dislocation one or three weeks after injection of the hydrogel. The biomaterials (i.e. hydrogel) together with the skin surrounding the injection point were harvested after 7, or 21 days and embedded in paraffin. Histological sections of skin portions associated to the hydrogel were then stained to assess the degradation pattern, cell infiltration (data not shown) and angiogenesis.
The blood vessels in and around the hydrogels 21 days after implantation were identified by immunolabelling with rabbit anti-CD31 antibody (Abcam, ref ab28364 dilution:1/100) followed by incubation with HRP-conjugated anti-rabbit secondary antibody (Vector MP-7401, dilution:1/2)
During the regeneration process, the development of neovessels in the remodeling tissue is of major importance. Therefore, immunostaining of CD31, an endothelial cell marker, was performed on day 21 to assess angiogenesis.
CD31 positive cells were not found inside the hydrogels, showing that the non-degraded hydrogels were bad substrates for blood vessel ingress. Figure 11B depicts the quantification of blood vessels counted manually per 0.2mm^2 at four different random regions in the tissue surrounding each hydrogel. […]

[2] = MALDI-TOF analysis of degradation products released by the hydrogels in PBS; conditions: hydrogel, 21-day incubation in PBS at 37°C, MALDI-TOF of the buffer
Experimental: The degradation products generated during the 21-day incubation of the samples was determined by analyzing the PBS solution in which they were incubated. At day 21 the PBS was collected and analyzed for the degradation products of individual hydrogels by using mass spectroscopy. Studies, performed in triplicates, allowed for the calculation of degradation kinetics.
In order to assess the fragmentation of the molecules during incubation, the by-products of degradation present in the buffer were analysed by MALDI-TOF (Matrix Assisted Laser Desorption Ionization - Time of Flight) mass spectrometry at the end of the experiment (21 days) (Figures 4 and 5).
The analyses were carried out on the MALDI-TOF-TOF Ultraflex (Bruker) in positive reflector mode (detection of positively charged species in the form of [M + H] + and [M + Na] + ions).The external calibration of the spectrometer was carried out with a mixture of components in the mass range m / z 700-2500. The matrix used is a solution of 2,4,6 trihydroxyacetophenone at 20 mg / ml in EtOH / NH4 citrate 25 mM. The samples were diluted by a factor of 50 in water before MS analysis.

[3] = In vitro degradation of the hydrogels (weight loss in PBS); type: physicochemical; conditions: hydrogel 1.5% (w/v), PBS 1X, after 3 weeks at 37°C
Experimental: Hydrogels were prepared with compound 17, compound 20, GNF at a concentration of 1.5% (w/v) by dissolving the powder in sterile phosphate buffered saline solution (PBS 1X, pH 7.4). The suspensions were heated at 65 °C for GNF and 80°C for the compounds 17 and 20. The GNF solution was incubated at 37 °C for 30 min to form a gel, whereas the other molecules formed the gel within 5 min.
Hydrogels were also prepared from compound A, which was used as a control.
Hydrogel disks (100 µl) were prepared and were incubated in 7 ml of PBS 1X at 37°C for 21 days. All the hydrogel samples were weighed before incubating with the phosphate buffer (initial weight). The samples were removed at different time points (1, 2, 3, 5, 7, 15, and 21 days), weighed immediately after removing the excess of PBS by gently touching the surface of a tissue (Kimwipes™) and put back in the same solution of PBS.
The degradation was monitored by measuring the weight loss of the gels after different periods of incubation. After 3 weeks at 37°C, the remaining weights were 65 ± 4 %, 63 ± 1 %, and 55 ± 2 %, for GNF, compound 17 and compound 20, respectively, as shown on Figure 3..

[4] = tested on: CAM of chick embryos (Gallus gallus); assay: Chick chorioallantoic membrane (CAM) angiogenesis assay; type: in vivo; conditions: 20 µl of 500 µg/ml in DMEM on day 13 and 14, evaluated day 17, versus DMEM control
Experimental: The angiogenesis assay was performed on the CAM of chick embryos (Gallus gallus) (E.A.R.L. Morizeau, Dangers, France). Embryos were incubated at 37°C and 70% humidity to […]. On day 3 of development, 3-5 ml of egg white was withdrawn by punctuating the air chamber with the syringe, and a window was made by cutting the eggshell and sealed with Durapore® tape. On day 13, prepared plastic rings (made from Nunc Thermanox® coverslips, diameter 13 mm and thickness 0.2mm) were placed on the intact CAM. 20 µl of the molecule (concentration 500 µg/ml in DMEM medium) or an equivalent volume of DMEM alone as control were deposited in the center of the plastic rings. The treatment was repeated the following day followed by photo documentation (day 14). On day 17, the eggs were fixed by addition of 2 ml of 4% paraformaldehyde (Antigenfix) for 30 min at room temperature. Imaging was performed with a stereomicroscope (Nikon SMZ800) using a digital camera (Nikon Coolpix 950). The images were scored for morphological changes of blood capillaries such as sprouting and tortuosity (0=normal, 1=overrepresented) by five observers using a blinded screening test (data not shown).
The angiogenic response was evaluated on day 17 based on two morphological parameters: sprouting, and presence of tortuous vessels (data not shown). […]

Row | Compound | toxicity to the vital organs [1] | numbers of blood vessels (bv) in the vicinity of the hydrogel (blood vessels) | fragmentation of the molecules during incubation (degradation products) [2] | remaining weights [3] | sprouting ([4]; p = 0.0046 (Fisher's exact test)) | tortuous vessels ([4]; p = 0.0195 (Fisher's exact test))
1 | 1,14-bis-tetradecanyl-5'-[(4-methylamide)-1H-1,2,3-triazol-1-yl]-N-3-[1-((β-D-glucopyranoside)-1H-1,2,3-triazole-4-yl)methyl]-5'-deoxy thymidine [compound 20] | did not show any toxicity to the vital organs | 7.95 ± 0.74 bv/0.2 mm2 | – | – | – | –
2 | Cc1cn([C@H]2C[C@H](O)[C@@H](Cn3cc(CNC(=O)CCC(F)(F)C(F)(F)C(F)(F)C(F)(F)C(F)(F)C(F)(F)C(F)(F)C(F)(F)F)nn3)O2)c(=O)n(Cc2cn([C@@H]3O[C@H](CO)[C@@H](O)[C@H](O)[C@H]3O)nn2)c1=O [GNF] | did not show any toxicity to the vital organs | 6.10 ± 1.07 bv/0.2 mm2 | fragmentations of the hydrogel molecules as a result of degradation | 65 ± 4% | – | –
3 | Cc1cn([C@H]2C[C@H](O)[C@@H](CO)O2)c(=O)n(Cc2cn([C@@H]3O[C@H](CO)[C@@H](O)[C@H](O)[C@H]3O)nn2)c1=O [GN-1, N-3-[1-((β-D-Glucopyranoside)-1H-1,2,3-triazol-4-yl)methyl] thymidine] | – | – | – | – | more CAMs that were treated with GN-1 exhibited sprouting and tortuous vessels | more CAMs that were treated with GN-1 exhibited sprouting and tortuous vessels
4 | Cc1cn([C@H]2C[C@H](O)[C@@H](Cn3cc(CNC(=O)NCCCCCCCCCCCCNC(=O)NCc4cn(C[C@H]5O[C@@H](n6cc(C)c(=O)n(Cc7cn([C@@H]8O[C@H](CO)[C@@H](O)[C@H](O)[C@H]8O)nn7)c6=O)C[C@@H]5O)nn4)nn3)O2)c(=O)n(Cc2cn([C@@H]3O[C@H](CO)[C@@H](O)[C@H](O)[C@H]3O)nn2)c1=O [compound 17, 1,12-bis-dodecanyl-5'-[(4-methylurea)-1H-1,2,3-triazol-1-yl]-N-3-[1-((β-D-glucopyranoside)-1H-1,2,3-triazole-4-yl)methyl]-5'-deoxy thymidine] | did not show any toxicity to the vital organs | 4.30±0.41 bv/0.2 mm2 | fragmentations of the hydrogel molecules as a result of degradation | – | – | –
